According to the supplement of paper PMC11061612:

Tests used:
Assay in all cases: combination Emax (second highest fraction inhibited in the dose matrix, 72 h); higher = more inhibition; extreme values may be limits of the assay
[1] = system: HCT-15 (Colorectal Carcinoma)
Summary of the method: (§1)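 After 24 hours at 37°C and 5% CO2 in 1536-well plates, cells in DMEM/F12 or RPMI plus 10% FBS received two-drug dose matrices for 72 hours. Viability came from CellTiter-Glo 2.0 luminescence and was scaled as inhibition, anchored at 0 by vehicle wells and at 1 by blank wells. Combination Emax is taken as the second-highest inhibition in the matrix, and Bliss excess as the observed combination effect less EA + EB − EA·EB, with EA and EB the single-agent effects.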

[2] = system: HSC-39 (Gastric Carcinoma)
Summary of the method: as §1

[3] = system: LB996-RCC (Kidney Carcinoma)
Summary of the method: as §1

[4] = system: GP5d (Colorectal Carcinoma)
Summary of the method: as §1

[5] = system: KE-37 (T-Lymphoblastic Leukemia)
Summary of the method: as §1

A2058 (Melanoma) = system: A2058 (Melanoma)
Summary of the method: as §1

[6] = system: RCM-1 (Colorectal Carcinoma)
Summary of the method: as §1

[7] = system: SK-PN-DW (Other Solid Carcinomas)
Summary of the method: as §1

[8] = system: LK-2 (Squamous Cell Lung Carcinoma)
Summary of the method: as §1

[9] = system: TE-8 (Esophageal Squamous Cell Carcinoma)
Summary of the method: as §1

LN-229 (Glioblastoma) = system: LN-229 (Glioblastoma)
Summary of the method: as §1

[10] = system: 23132-87 (Gastric Carcinoma)
Summary of the method: as §1

[11] = system: CAL-62 (Thyroid Gland Carcinoma)
Summary of the method: as §1

SF268 (Low Grade Glioma) = system: SF268 (Low Grade Glioma)
Summary of the method: as §1

[12] = system: CAL-120 (Breast Carcinoma)
Summary of the method: as §1

[13] = system: RERF-GC-1B (Gastric Carcinoma)
Summary of the method: as §1

[14] = system: LXF-289 (Lung Adenocarcinoma)
Summary of the method: as §1

[15] = system: OAW-42 (Ovarian Carcinoma)
Summary of the method: as §1

[16] = system: RKN (Other Solid Carcinomas)
Summary of the method: as §1

WM793B (Melanoma) = system: WM793B (Melanoma)
Summary of the method: as §1

Row | Structure (SMILES) | combination Emax [1] | combination Emax [2] | combination Emax [3] | combination Emax [4] | combination Emax [5] | combination Emax (A2058 (Melanoma)) | combination Emax [6] | combination Emax [7] | combination Emax [8] | combination Emax [9] | combination Emax (LN-229 (Glioblastoma)) | combination Emax [10] | combination Emax [11] | combination Emax (SF268 (Low Grade Glioma)) | combination Emax [12] | combination Emax [13] | combination Emax [14] | combination Emax [15] | combination Emax [16] | combination Emax (WM793B (Melanoma))
1 | Cc1c2c(nn1C)CSCc1cc(n(C)n1)CSc1cc(c3ccccc3c1)OCCCc1c(C(=O)O)n(C)c3c-2c(Cl)ccc13 [AZD5991] + CC1(C)CCC(CN2CCN(c3ccc(C(=O)NS(=O)(=O)c4ccc(NCC5CCOCC5)c([N+](=O)[O-])c4)c(Oc4cnc5[nH]ccc5c4)c3)CC2)=C(c2ccc(Cl)cc2)C1 [Venetoclax] (first compound max 1 µM, 7x7, partner max 1 µM) | 0.182 | 1 | 0.199 | 0.928 | 0.987 | 0.914 | 0.171 | 0.929 | 0.302 | 0.403 | 0.503 | 0.903 | 0.148 | 0.248 | 0.121 | 1 | 0.296 | 0.37 | 0.146 | 0.261
2 | Cc1c2c(nn1C)CSCc1cc(n(C)n1)CSc1cc(c3ccccc3c1)OCCCc1c(C(=O)O)n(C)c3c-2c(Cl)ccc13 [AZD5991] + CCN(CCO)CCCOc1ccc2c(Nc3cc(CC(=O)Nc4cccc(F)c4)[nH]n3)ncnc2c1 [AZD2811] (first compound max 1 µM, 7x7, partner max 1 µM) | 0.263 | 1 | 0.405 | 0.956 | 1 | 0.919 | 0.347 | 0.985 | 0.962 | 0.529 | 0.522 | 0.924 | 0.237 | 0.472 | 0.21 | 0.998 | 0.864 | 0.288 | 0.185 | 0.374
3 | Cc1c2c(nn1C)CSCc1cc(n(C)n1)CSc1cc(c3ccccc3c1)OCCCc1c(C(=O)O)n(C)c3c-2c(Cl)ccc13 [AZD5991] + CN(C)CCCOc1ccc(-c2ccc3ncc4c(c3c2)n(C2CCOCC2)c(=O)n4C)cn1 [AZD0156] (first compound max 1 µM, 7x7, partner max 1 µM) | 0.197 | 1 | 0.265 | 0.817 | 0.939 | 0.465 | 0.232 | 0.835 | 0.183 | 0.379 | 0.483 | 0.934 | 0.218 | 0.3 | 0.171 | 0.978 | 0.427 | 0.556 | 0.173 | 0.305
4 | Cc1c2c(nn1C)CSCc1cc(n(C)n1)CSc1cc(c3ccccc3c1)OCCCc1c(C(=O)O)n(C)c3c-2c(Cl)ccc13 [AZD5991] + C[C@@H]1COCCN1C2=NC(=NC(=C2)C3(CC3)[S@](=N)(=O)C)C4=C5C=CNC5=NC=C4 [AZD6738] (first compound max 1 µM, 7x7, partner max 10 µM) | 0.733 | 1 | 0.752 | 0.984 | 1 | 0.925 | 0.801 | 0.947 | 0.357 | 0.751 | 0.777 | 0.979 | 0.806 | 0.692 | 0.413 | 1 | 0.776 | 0.644 | 0.215 | 0.834
5 | Cc1c2c(nn1C)CSCc1cc(n(C)n1)CSc1cc(c3ccccc3c1)OCCCc1c(C(=O)O)n(C)c3c-2c(Cl)ccc13 [AZD5991] + C[C@@H](Nc1cc(F)cc(F)c1)c1cc(C(=O)N(C)C)cc2c(=O)cc(N3CCOCC3)oc12 [AZD8186] (first compound max 1 µM, 7x7, partner max 3 µM) | 0.194 | 1 | 0.373 | 0.817 | 0.919 | 0.821 | 0.285 | 0.911 | 0.196 | 0.373 | 0.546 | 0.867 | 0.206 | 0.3 | 0.218 | 0.98 | 0.47 | 0.277 | 0.289 | 0.419
6 | Cc1c2c(nn1C)CSCc1cc(n(C)n1)CSc1cc(c3ccccc3c1)OCCCc1c(C(=O)O)n(C)c3c-2c(Cl)ccc13 [AZD5991] + Cc1cc2ncnn2cc1Nc1ncc2c(n1)n(C1CCOCC1)c(=O)n2C [AZD7648] (first compound max 1 µM, 7x7, partner max 10 µM) | 0.251 | 1 | 0.363 | 0.824 | 0.975 | 0.452 | 0.241 | 0.881 | 0.198 | 0.427 | 0.389 | 0.887 | 0.439 | 0.243 | 0.252 | 0.987 | 0.369 | 0.502 | 0.219 | 0.32
7 | Cc1c2c(nn1C)CSCc1cc(n(C)n1)CSc1cc(c3ccccc3c1)OCCCc1c(C(=O)O)n(C)c3c-2c(Cl)ccc13 [AZD5991] + Cn1cnc2c(F)c(Nc3ccc(Br)cc3Cl)c(C(=O)NOCCO)cc21 [Selumetinib] (first compound max 1 µM, 7x7, partner max 3 µM) | 0.301 | 1 | 0.255 | 1 | 0.947 | 0.991 | 0.651 | 0.887 | 0.203 | 0.415 | 0.428 | 0.903 | 0.354 | 0.269 | 0.167 | 0.998 | 0.398 | 0.263 | 0.292 | 0.454
